Measured values taken from patent publication US7902190B2, “Indol derivatives, the method for preparing thereof and composition for the prevention and treatment of metabolic disorder containing the same as an active ingredient” (Korea Research Institute of Bioscience and Biotechnology, priority 2006, dated 2011).
Entries after “also recorded” stand apart in the source; their conditions may differ.

Assays:
DGAT [1] = assay: Assay for inhibitory effect on DGAT in cell (triglyceride production from [14C]acetate in HepG2 cells); format: cell-based, human; details: 10 μM; for Production Yield of Triglyceride (%): DMSO control taken as 100
Procedure: The effect of the indole derivatives of the present invention on DGAT was examined with HepG2 cells, hepatic cells derived from the human liver, as follows.
HepG2 cells, purchased from ATCC, were cultured in MEM (Minimum Essential Medium, 2 mM L-glutamine, Earle's BSS adjusted to contain 1.5 g/L sodium bicarbonate, 0.1 mM nonessential amino acids, and 1 mM sodium pyruvate), supplemented with 10% fetal bovine serum (FBS) and 1% antibiotics (100 U/ml penicillin and 100 µg/ml streptomycin) at 37° C. in a 5% CO2 incubator.
Intracellular DGAT activity was represented by the amount of triglycerides produced in the cultured HepG2 cells while the compounds (1, 6, 10, 11 and 15) of Chemical Formula 1 were assayed for inhibitory activity against DGAT by measuring the change in intracellular triglyceride production after the addition thereof.
Cells were plated at a density of 1×10^6 cell/ml per well into 24-well plates and incubated for 24 hours. Then, the medium was exchanged with FBS-free MEM. Thereafter, 0.2 mCi of [^14C]acetate (Amersham) was added as a substrate to the cells, followed by incubation for 18 hours. The production of triglycerides was catalyzed by DGAT so that DGAT activity was determined by the amount of the triglyceride product, which could be measured using radioactivity. For use, the samples were dissolved in dimethyl sulfoxide (DMSO). In a control, triglycerides were synthesized using DMSO without any sample, with the production yield thereof taken as 100.
The amount of the triglyceride products synthesized was determined as follows. […] 1 ml of the extract was concentrated with nitrogen gas. The total lipid residue thus formed was dissolved in an organic solvent mixture (chloroform:methanol=2:1) and loaded dropwise onto a thin layer chromatography plate (TLC; silica gel 60F254, 0.5 mm, Merck) using a mixture of 80:20:1 hexane:diethylether:acetic acid (v:v:v) as a developing solvent. After the separation of triglycerides (Rf value: 0.4) on TLC, the plate was brought into contact with an autoradiographic film for three hours, followed by image analysis (BAS-1500, Fuji Photo Film Co. Ltd.) to determine the [^14C] radioactivity of the triglycerides. The cells left after the extraction were suspended in 0.3 ml of a 0.1 N sodium hydroxide solution to measure the cellular protein concentration thereof.
The empirical values were obtained by dividing triglyceride radioactivity by protein level, with correction for experimental errors between test groups.

DGAT [2] = assay: Assay for inhibitory activity against DGAT ([14C]triacylglycerol formation, rat microsomal protein as enzyme source); format: biochemical; details: for DGAT (inhibition % in 25 μM) / DGAT (inhibition % in 5 μM): rat microsomal protein as enzyme source; for inhibitory activity against DGAT (in words): rat hepatic microsomal protein, 1,2-diacylglycerol and [14C]palmitoyl-CoA as substrates
Procedure: The following experiment was performed in order to examine the inhibitory activity of the indole derivatives of the present invention against DGAT. After enzymatic reaction between two substrates, 1,2-diacylglycerol (Sigma, D0138) and [^14C]palmitoyl-CoA (Amersham, CFA583), with the microsomal protein of rats serving as an enzyme source in accordance with Coleman et al, Methods Enzymol., 98-103, 1992, the resulting product [^14C] triacylglycerol was measured for radioactivity.
In detail, to a reaction buffer (175 mM Tris-HCl, pH 8.0, 20 μl bovine serum albumin (10 mg/ml), 100 mM MgCl2, 30 μM [^14C] palmitoyl-CoA (0.02 μCi, Amersham) and 200 μM 1,2-dioleoyl glycerol) was added 10 μl of a solution of the samples in dimethylsulfoxide (DMSO) and then 100-200 μl of an isolated microsomal protein, followed by reaction at 25° C. for 10 min. The reaction was terminated with 1.5 ml of a mixture of 80:20:2 2-propanol:heptane:water (v:v:v). Thereafter, the [^14C] triacylglycerol thus formed was separated. In this regard, 1 ml of heptane and 0.5 ml of distilled water were added to the reaction mixture, which was then shaken. 1 ml of the supernatant thus formed was mixed with 2 ml of an alkaline ethanol solution (ethanol:0.5 N sodium hydroxide:water=50:10:40, v:v:v), followed by shaking. After it was recovered, 0.65 ml of the supernatant thus formed was measured for radioactivity using an LSC (liquid scintillation counter). The inhibitory activity against DGAT was calculated according to the following Mathematical Formula 1.
T: Cpm of a test group in which a sample was added to an enzymatic buffer,
C: Cpm of a control in which no samples were added to an enzymatic buffer,
B: Cpm of a control in which a sample was added in the absence of any enzyme source.

SPF ICR mice = assay: Single-dose oral acute toxicity, SPF ICR mice; format: in vivo, mouse
Procedure: In addition, the compounds of the present invention were orally administered once at a dose of as high as 2,000 mg/kg into mice. In this regard, 7-week-old male SPF ICR mice (Dae Han Biolink Co. Ltd.) were acclimated to a new environment for one week and then, at 8 weeks of age, were divided into two groups of three. The test group was orally administered once with a dose of 2 g/kg of Compound 10 in a 0.5% CMC solution, while the control was administered with a 0.5% CMC (carboxymethyl cellulose) solution alone. They were monitored for death, clinical signs, change in body weight and the like for a couple of weeks. Autopsies were performed to examine the abnormality of organs.

DGAT (inhibition % in 25 μM) (DGAT [2]) [%] | DGAT (inhibition % in 5 μM) (DGAT [2]) [%] | SMILES | biosynthesis of triglyceride in comparison with the control (in words) (DGAT [1]) | Production Yield of Triglyceride (%) (DGAT [1]) | further results
4.66 |  | NC(=O)c1cccc(NC(=O)CCc2c[nH]c3ccccc23)c1 [Compound 1, 3-(3-1H-indol-3-yl-propionylamino)-benzamide] | produced smaller amounts of triglycerides than did the control | 95.5 ± 5.7 | 
0.08 |  | O=C(CCc1c[nH]c2ccccc12)Nc1cccc(C(=O)O)c1 [Compound 5, 3-(3-1H-indol-3-yl-propionylamino)-benzoic Acid] |  |  | 
2.05 | 3.06 | O=C(/C=C/c1c[nH]c2ccccc12)Nc1cccc(C(=O)NCCCN2CCOCC2)c1 [Compound 8, 3-(3-1H-indol-3-yl-acryloylamino)-N-(3-morpholin-4-yl-propyl)-benzamide] |  |  | 
13.24 | 2.72 | O=C(/C=C/c1c[nH]c2ccccc12)Nc1cccc(C(=O)NCc2ccco2)c1 [Compound 9, N-furan-2-ylmethyl-3-(3-1H-indol-3-yl-acryloylamino)-benzamide] |  |  | 
18.72 |  | COC(=O)c1cccc(NC(=O)/C=C/c2c[nH]c3ccccc23)c1 [Compound 4, 3-(3-1H-indol-3-yl-acryloylamino)-benzoic Acid Methyl Ester] |  |  | 
−3.11 | −5.29 | O=C(/C=C/c1c[nH]c2ccccc12)Nc1cccc(C(=O)NCCN2CCCCC2)c1 [Compound 7, 3-(3-1H-indol-3-yl-acryloylamino)-N-(2-piperidin-1-yl-ethyl)-benzamide] |  |  | 
19.36 |  | NC(=O)c1cccc(NC(=O)/C=C/c2c[nH]c3ccccc23)c1 [Compound 2, 3-(3-1H-indol-3-yl-acryloylamino)-benzamide] |  |  | 
11.52 |  | O=C(/C=C/c1c[nH]c2ccccc12)Nc1cccc(C(=O)O)c1 [Compound 6, 3-(3-1H-indol-3-yl-acryloylamino)-benzoic Acid] | produced smaller amounts of triglycerides than did the control | 92.5 ± 6.7 | 

The next lines start with the molecule.

SMILES | DGAT (inhibition % in 25 μM) (DGAT [2]) [%] | DGAT (inhibition % in 5 μM) (DGAT [2]) [%] | biosynthesis of triglyceride in comparison with the control (in words) (DGAT [1]) | Production Yield of Triglyceride (%) (DGAT [1]) | further results
O=C(/C=C/c1cn(Cc2ccccc2)c2ccccc12)Nc1cccc(C(=O)NCc2ccco2)c1 [Compound 11, 3-[3-(1-Benzyl-1H-indol-3-yl)-acryloylamino]-N-furan-2-ylmethyl-benzamide] | 64.13 | 54.09 | produced smaller amounts of triglycerides than did the control; also recorded: highly inhibit the biosynthesis of triglyceride | 55.5 ± 7.2 | inhibition of the biosynthesis of triglycerides (DGAT [1]): 44.5%; inhibitory activity against DGAT (in words) (DGAT [2]): potent inhibitory activity against DGAT in a dose-dependent manner
CN(C)CCn1cc(/C=C/C(=O)Nc2cccc(C(=O)NCc3ccco3)c2)c2ccccc21 [Compound 12, 3-{3[1-(2-Dimethylamino-ethyl)-1H-indol-3-yl]-acryloylamino}-N-furan-2-ylmethyl-benzamide] | −0.38 | −11.04 |  |  | 
CC(C)(C)OC(=O)Cn1cc(/C=C/C(=O)Nc2cccc(C(=O)NCc3ccco3)c2)c2ccccc21 [Compound 13, [3-(2-{3-[(Furan-2-ylmethyl)-carbamoyl]-phenylcarbamoyl}-vinyl)-indol-1-yl]-acetic acid-t-butyl Ester] | 53.15 | −0.95 |  |  | 
CC(=O)n1cc(/C=C/C(=O)Nc2cccc(C(=O)NCc3ccco3)c2)c2ccccc21 [Compound 16, 3-[3-(1-Acetyl-1H-indol-3-yl)-acryloylamino]-N-furan-2-ylmethyl-benzamide] | 39.82 | −10.09 |  |  | 
O=C(/C=C/c1cn(S(=O)(=O)c2cccs2)c2ccccc12)Nc1cccc(C(=O)NCc2ccco2)c1 [Compound 15, N-furan-2-ylmethyl-3-[3-[1-(thiophene-2-sulfonyl)-1H-indol-3-yl]-acryloylamino]-benzamide] | 49.88 | 40.88 | produced smaller amounts of triglycerides than did the control; also recorded: highly inhibit the biosynthesis of triglyceride | 61.5 ± 7.1 | inhibition of the biosynthesis of triglycerides (DGAT [1]): 38.5%; inhibitory activity against DGAT (in words) (DGAT [2]): potent inhibitory activity against DGAT in a dose-dependent manner
CC(C)(C)OC(=O)n1cc(/C=C/C(=O)Nc2cccc(C(=O)NCc3ccco3)c2)c2ccccc21 [Compound 10, 3-(2-3-[(Furan-2-ylMethyl)-Carbamoyl]-Phenylcarbamoyl-Vinyl)-Indole-1-Carboxylic Acid-t-Butyl Ester] | 78.68 | 60.22 | produced smaller amounts of triglycerides than did the control; also recorded: highly inhibit the biosynthesis of triglyceride | 49.2 ± 5.7 | oral acute toxicity (in words) (SPF ICR mice; administered once at a dose of up to 2,000 mg/kg): no oral acute toxicity; Mortality (No. of Dead/No of Tested) (SPF ICR mice; single oral dose 2 g/kg in 0.5% CMC, monitored two weeks): 0/3; Body Weight (g) Day 0 (SPF ICR mice; single oral dose 2 g/kg, Day 0, Mean ± SD): 36 ± 0.5 g; Body Weight (g) Day 1 (SPF ICR mice; single oral dose 2 g/kg, Day 1, Mean ± SD): 38 ± 1.0 g; Body Weight (g) Day 3 (SPF ICR mice; single oral dose 2 g/kg, Day 3, Mean ± SD): 38 ± 0.2 g; Body Weight (g) Day 7 (SPF ICR mice; single oral dose 2 g/kg, Day 7, Mean ± SD): 39 ± 1.2 g; Body Weight (g) Day 14 (SPF ICR mice; single oral dose 2 g/kg, Day 14, Mean ± SD): 42 ± 2.0 g; inhibition of the biosynthesis of triglycerides (DGAT [1]): 50.8%; inhibitory activity against DGAT (in words) (DGAT [2]): potent inhibitory activity against DGAT in a dose-dependent manner
O=C(/C=C/c1cn(S(=O)(=O)Cc2ccccc2)c2ccccc12)Nc1cccc(C(=O)NCc2ccco2)c1 [Compound 14] | 50.89 | 43.19 |  |  | inhibitory activity against DGAT (in words) (DGAT [2]): potent inhibitory activity against DGAT in a dose-dependent manner
